Results: ChEMBL document CHEMBL4304793, “Evaluation of a Series of β-Secretase 1 Inhibitors Containing Novel Heteroaryl-Fused-Piperazine Amidine Warheads” (ACS Med Chem Lett, 2019)

Assay: Dissociation constant, pKa of compound
Type: physicochemical

| Structure (SMILES) | pKa |
| --- | --- |
| C[C@@]1(c2cc(NC(=O)c3ccc(C#N)cn3)ccc2F)Cn2cccc2C(N)=N1 | 10.3 |
| C[C@@]1(c2cc(NC(=O)c3ccc(C#N)cn3)ccc2F)Cn2ncnc2C(N)=N1 | 6.5 |
| C[C@@]1(c2cc(NC(=O)c3ccc(C#N)cn3)ccc2F)Cn2nncc2C(N)=N1 | 7.1 |
| C[C@@]1(c2cc(NC(=O)c3ccc(C#N)cn3)ccc2F)Cn2nnnc2C(N)=N1 | 5.1 |
| C[C@@]1(c2cc(NC(=O)c3ccc(C#N)cn3)ccc2F)Cn2cnnc2C(N)=N1 | 6.4 |
| C[C@@]1(c2cccc(NC(=O)c3ccc(C#N)cn3)c2)Cn2nccc2C(N)=N1 | 8.5 |
| C[C@@]1(c2cc(NC(=O)c3ccc(C#N)cn3)ccc2F)Cn2ccnc2C(N)=N1 | 8.2 |
| C[C@@]1(c2cc(NC(=O)c3ccc(C#N)cn3)ccc2F)Cn2cncc2C(N)=N1 | 9 |
